Results as given in PubChem BioAssay AID504626 (Southern Research Specialized Biocontainment Screening …, 2011).

Tested on: human PBMC, CCR5-tropic HIV-1 replication, RT activity
Assay: inhibitors of CCR5-tropic HIV-1 replication in PBMCs, dose response, cell-based, human PBMC, R5-tropic strain, set 3 (AID 504626)

Cc1c2c(=O)n(-c3nc4ccccc4s3)nc-2cc(O)n1Cc1ccccc1
IC50: 1.57 µM
